Experimental data: US9910050B2, “Mutant smoothened and methods of using the same” (Curis, Inc., priority 2009, dated 2018)
Entries after “also recorded” stand apart in the source; their conditions may differ. One block for each compound: values may come before it.

What was measured:
[1] = tested on: control and GDC-0449-resistant MB allografts; assay: Tumor growth of control and GDC-0449-resistant MB allografts, PI3K inhibitor study; type: in vivo, mouse; settings: GDC-0941 150 mg kg−1 once daily, oral, SG102, SG152, SG274
From the text: (§1) Drug treatment of animals with MB allografts. Tumor-hearing animals were generated via serial subcutaneous propagation of murine Ptch+/−; p53−/− MB tumor lines (Wetmore C. et al. (2001) Cancer Res. 61:513-516). Subcutaneous tumors 1500-2000 mm3 were excised from donor mice under aseptic conditions, minced in High Glucose DMEM by repeated slicing and chopping with two #10 scalpels and passed through a cell dissociation sieve (Sigma, CD1-1KT). The resulting single cell suspension was washed twice in High Glucose DMEM and filtered through a 70 μm nylon cell strainer (BD Falcon) before counting in a Vi-CELL cell viability analyzer (Beckman Coulter). Approximately 2.5-4×10^6 live cells in a 100 μl volume were injected subcutaneously into the right lateral thorax of 7 to 10-week-old female CD-1 nude mice (CRL). Tumor dimensions were measured with Ultra Cal1 IV calipers (Fred V. Fowler Company Inc., Newton, Mass.) and tumor volume was calculated using the formula v=0.5×a×b2, where a and b are the […] perpendicular tumor diameters, respectively. When tumors reached 125-350 mm^3 in volume, animals were separated into treatment groups with similarly sized tumors and drug administration was initiated. […]

[2] = tested on: pAKT and pS6 (PI3K pathway); assay: Immunoblot of activated AKT and S6 in MB allograft tumors; type: in vivo, mouse; settings: 6-hour treatment with GDC-0941
Protocol: Immunoblotting. Frozen tumor samples were lysed in M-PER Mammalian Protein Extraction Reagent (Pierce) containing protease and phosphatase inhibitors. Lysates were separated on 4-12% Bis-Tris gels and proteins were transferred onto PVDF membranes with an iBlot (Invitrogen). Blots were blocked and incubated overnight at 4° C. with 5% milk containing one of the following primary antibodies; anti-cyclin D1 (Cell Signaling, #2922), anti-phospho(Ser473)-AKT (Cell Signaling, #4060), anti-total AKT (Cell Signaling #9272), anti-Gli2 (Cho A. et al. (2008) Dev. Biol. 321:27-39), or anti-actin (Santa Cruz Biotechnology, sc-47778), followed by a 1 h incubation at RT with appropriate HRP-conjugated secondary antibodies. Antigen-antibody interactions were visualized with SuperSignal West Dura Extended Duration Substrate (Pierce).

[3] = tested on: Smo localization to the primary cilium in S12 cells; assay: Smo immunostaining, ciliary localization in S12 cells; settings: 16 h; for ciliary accumulation of Smo in the absence of Hh stimulation: no Shh; for effect on Smo localization compared with GDC-0449: absence or presence of Shh, 1 μM
SMO-D473H = target: T1, SMO-D473H (Homo sapiens, UniProt Q99835, D473H); assay: Gli-luciferase reporter assay in C3H10T½ cells transfected with SMO-D473H; type: cell-based; settings: for activity against SMO-D473H, inhibition of Gli-luciferase activity: screen at 1 μM compound
T1 construct: expressed in transfected cells; host or cells: C3H10T½ cells (reporter assay)
Protocol: For the PTCH1 inhibition experiments, cells were transfected with an additional 200 ng of DNA containing varying ratios of PTCH1 to eGFP expression constructs. For the NF-κB and SV40 reporter assays, Gli-BS was replaced with either pGL4.32 or pGL3-Promoter. Six hours later, cells were collected by trypsin treatment and each well was redistributed over four wells of a 12-well plate. The FBS content of the culture medium was reduced to 0.5% the following morning to induce formation of primary cilia, and small molecule Hh inhibitors were added at indicated concentrations. […] Values were divided by Renilla luciferase activities to normalize for transfection efficiency and are shown as the mean of three separate experiments±1 standard deviation.

[4] = Mouse pharmacokinetic study; type: in vivo; settings: for pharmacokinetic properties in mice: oral
Protocol: Mouse pharmacokinetic studies. […] Briefly, 24 female CD-1 mice weighing 25 to 33 g at study initiation were given a single oral 100 mg kg−1 dose of either compound 4 or 5 as a suspension in 0.5% methylcellulose with 0.2% Tween-80 (MCT). Blood samples (n=3 mice per time point) were collected in tubes containing EDTA as an an anticoagulant by terminal cardiac puncture under isoflurane at the following time points: 5, 15 and 30 min; and 1, 3, 6, 9 and 24 h post-dose. Blood samples were centrifuged to collect plasma, which was stored at −80° C. until drug concentrations were quantified by LC/MS/MS.

human hepatocytes = assay: Metabolism by human hepatocytes; type: in vitro ADME; settings: unpublished observation
[5] = tested on: Smo localization to the primary cilium; settings: literature reports; cited from earlier work
SMO-WT = target: T2, SMO-WT (Homo sapiens, UniProt Q99835); assay: Gli-luciferase reporter assay in C3H10T½ cells transfected with SMO-WT; type: cell-based
T2 construct: expressed in transfected cells; host or cells: C3H10T½ cells (reporter assay)

[6] = tested on: SG274 allografts (Smo-D477G); assay: Tumor growth of subcutaneous SG274 MB allografts; type: in vivo, mouse; settings: compound 5 100 mg kg−1 once daily, oral
From the text: as §1

endogenous SMO = target: T3, endogenous SMO (Mus musculus, UniProt P56726); assay: Inhibition of endogenous SMO following stimulation by Hh ligand; type: cell-based; settings: data not shown
T3 construct: endogenous in cells

[7] = tested on: Gli1 mRNA in SG274 tumors; assay: Gli1 mRNA levels by qRT-PCR in SG274 tumors; type: in vivo, mouse; settings: compound 5 100 mg kg−1 once daily, collected 6 hours after last treatment
[8] = 5 μM for cyclopamine, 1 μM for the others

T1 sequence (Q99835 28-787 D473H): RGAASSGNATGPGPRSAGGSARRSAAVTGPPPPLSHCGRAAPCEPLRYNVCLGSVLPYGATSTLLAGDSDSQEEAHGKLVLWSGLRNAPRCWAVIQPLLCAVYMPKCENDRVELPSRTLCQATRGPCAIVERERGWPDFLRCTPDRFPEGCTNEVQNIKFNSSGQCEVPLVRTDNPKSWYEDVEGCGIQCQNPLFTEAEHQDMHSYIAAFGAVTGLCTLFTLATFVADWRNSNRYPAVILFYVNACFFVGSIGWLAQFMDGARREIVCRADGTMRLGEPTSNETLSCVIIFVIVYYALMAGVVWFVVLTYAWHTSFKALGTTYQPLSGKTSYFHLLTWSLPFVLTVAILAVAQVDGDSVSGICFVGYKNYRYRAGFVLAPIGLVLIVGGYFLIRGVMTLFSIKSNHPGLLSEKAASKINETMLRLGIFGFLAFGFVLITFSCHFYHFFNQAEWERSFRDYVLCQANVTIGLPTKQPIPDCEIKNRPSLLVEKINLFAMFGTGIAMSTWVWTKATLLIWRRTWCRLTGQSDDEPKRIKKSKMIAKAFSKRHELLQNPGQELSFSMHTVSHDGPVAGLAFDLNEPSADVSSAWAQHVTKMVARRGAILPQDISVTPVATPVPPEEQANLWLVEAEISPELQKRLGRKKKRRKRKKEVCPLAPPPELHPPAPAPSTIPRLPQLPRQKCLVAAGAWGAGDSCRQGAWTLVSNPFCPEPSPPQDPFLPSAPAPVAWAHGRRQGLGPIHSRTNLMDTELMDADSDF
T2 sequence (Q99835 28-787): as the sequence (Q99835 28-787 D473H) above, with H446D counted along it
T3 sequence (P56726 33-793): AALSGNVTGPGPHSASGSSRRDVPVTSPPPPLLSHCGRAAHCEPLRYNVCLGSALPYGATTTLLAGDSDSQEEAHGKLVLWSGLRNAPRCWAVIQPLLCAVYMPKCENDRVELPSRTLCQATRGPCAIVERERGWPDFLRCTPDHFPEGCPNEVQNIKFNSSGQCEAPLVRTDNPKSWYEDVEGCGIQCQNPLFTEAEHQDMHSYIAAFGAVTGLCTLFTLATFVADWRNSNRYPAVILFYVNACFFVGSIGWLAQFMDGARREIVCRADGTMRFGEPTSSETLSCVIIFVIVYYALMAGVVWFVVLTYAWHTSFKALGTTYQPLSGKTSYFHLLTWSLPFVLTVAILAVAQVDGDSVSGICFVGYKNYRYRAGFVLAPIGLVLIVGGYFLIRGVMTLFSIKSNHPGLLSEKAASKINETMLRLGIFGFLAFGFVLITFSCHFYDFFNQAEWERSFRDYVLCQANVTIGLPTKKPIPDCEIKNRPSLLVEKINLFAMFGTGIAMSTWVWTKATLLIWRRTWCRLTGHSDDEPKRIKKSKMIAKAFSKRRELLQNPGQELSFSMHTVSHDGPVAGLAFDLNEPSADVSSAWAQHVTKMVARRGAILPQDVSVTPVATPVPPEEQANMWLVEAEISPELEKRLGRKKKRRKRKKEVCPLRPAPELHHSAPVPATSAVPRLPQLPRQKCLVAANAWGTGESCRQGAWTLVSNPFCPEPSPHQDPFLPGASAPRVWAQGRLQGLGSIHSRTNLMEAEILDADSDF

Compound: CS(=O)(=O)N1CCN(Cc2cc3nc(-c4cccc5[nH]ncc45)nc(N4CCOCC4)c3s2)CC1 [GDC-0941]
tumor growth of control and resistant MB allograft models [1]: greatly reduced tumor growth
pAKT and pS6 levels in tumors [2]: decreased pAKT and pS6 levels

Compound: CNC1CCC(N(Cc2cccc(-c3ccncc3)c2)C(=O)c2sc3ccccc3c2Cl)CC1 (stereo not drawn) [SAG]
ciliary accumulation of Smo in the absence of Hh stimulation [3, 8]: robust translocation of Smo to the primary odium

Compound: CC1=C2C[C@H]3[C@@H](CC=C4C[C@@H](O)CC[C@@]43C)[C@@H]2CC[C@]12O[C@@H]1C[C@H](C)CN[C@H]1[C@H]2C [cyclopamine]
activity against SMO-D473H, inhibition of Gli-luciferase activity (SMO-D473H): partially resistant; also recorded: neither cyclopamine nor SANT-1 can fully inhibit Smo-D473H
ciliary accumulation of Smo in the absence of Hh stimulation [3, 8]: robust translocation of Smo to the primary odium

activity against SMO-D473H, inhibition of Gli-luciferase activity (SMO-D473H): measurable activity
Compound: CS(=O)(=O)c1ccc(C(=O)Nc2ccc(Cl)c(NC(=O)c3ccccc3)c2)c(Cl)c1 [Compound 3]

activity against SMO-D473H, inhibition of Gli-luciferase activity (SMO-D473H): improved potencies
Compound: O=C(Nc1ccc(Cl)c(NC(=O)c2cccc(Cl)c2)c1)c1ccc(N2CCC(O)CC2)nc1 [Compound 4]
pharmacokinetic properties in mice [4]: cleared much more rapidly from the blood stream than compound 5

Compound: KAAD-cyclopamine
ciliary accumulation of Smo in the absence of Hh stimulation [3, 8]: partially induced ciliary translation

metabolism by human hepatocytes (human hepatocytes): rapidly metabolized by human hepatocytes
Compound: CCOc1cc(C(=O)Nc2ccc(Cl)c(-c3nc4ccccc4[nH]3)c2)cc(OCC)c1OCC [HhAntag]
activity against SMO-D473H, inhibition of Gli-luciferase activity (SMO-D473H): essentially equipment against all SMO alleles
effect on Smo localization compared with GDC-0449 [3]: very similar effects on Smo localization

Compound: Cc1nn(-c2ccccc2)c(C)c1/C=N/N1CCN(Cc2ccccc2)CC1 [SANT-1]
activity against SMO-D473H, inhibition of Gli-luciferase activity (SMO-D473H): partially resistant; also recorded: neither cyclopamine nor SANT-1 can fully inhibit Smo-D473H
Hh-induced Smo translocation to the primary cilium ([3]; 200 ng/ml octyl-Shh, 5 μM for cyclopamine, 1 μM for the others): prevented Hh-induced Smo translocation
ciliary accumulation of Smo in the absence of Hh stimulation [3, 8]: did not promote ciliary enrichment
Shh and agonist-induced translocation of Smo to the cilium [5]: prevented Shh and agonist-induced translocation of Smo

activity against wild type SMO, Gli-luciferase reporter (SMO-WT; SMO-WT overexpression in C3H10T½ cells): less potent against SMO-WT than GDC-0449
IC50 (SMO-WT; SMO-WT transfected C3H10T½ cells, read-out: IC50, inhibition of GLI-luciferase reporter activity): 300 nM
IC50 (SMO-D473H; SMO-D473H transfected C3H10T½ cells, read-out: IC50, inhibition of Gli-luciferase reporter activity): 700 nM
inhibition of SMO-D473H, Gli-luciferase reporter dose response (SMO-D473H; dose response): can inhibit the drug-resistant mutant
activity against SMO-D473H, inhibition of Gli-luciferase activity (SMO-D473H): improved potencies
half-life ([4]; female, CD-1, mouse, mice, single oral 100 mg kg−1 dose, plasma, read-out: terminal half-life (t1/2) (converted)): ~22 h
pharmacokinetic properties in mice [4]: good pharmacokinetic properties in mice
less compound sufficient to inhibit endogenous SMO than in SMO overexpression assay (endogenous SMO): approximately 10 fold
Compound: C[C@@H]1CN(c2ccc(C(=O)Nc3ccc(Cl)c(NC(=O)c4cccc(Cl)c4)c3)cn2)C[C@H](C)N1 [Compound 5]
effect on Smo localization compared with GDC-0449 [3]: very similar effects on Smo localization
tumor growth of SG274 allografts [6]: not only stopped growing but even started to shrink
Gli1 mRNA levels in SG274 tumors [7]: downregulation in Gli1 mRNA levels
